For series [1] the following is noted: cited from earlier work; for side effects / toxicity (in words): background.
Series [2] is described as follows: in vivo. The series is classed as in vivo. Particulars: mouse, in vivo, ip; LD50 and ED50 in mg/kg, i.p.; read-out: Therapeutic index. The protocol:
(§1) The test compounds were administered in varying intraperitoneal doses to groups consisting of 5 mice. Ten minutes after administration of a given dose of a compound, a mouse was transferred to a covered 300 ml glass beaker that contained a wad of cotton saturated with about 20 ml of chloroform. The animal was observed closely and removed from the beaker immediately after respiratory arrest. The heart was quickly exposed by making an incision through the abdomen, diaphragm, thorax and pericardium for visual inspection of ventricular rate and rhythm. Ventricular contractions were counted for 30 seconds. According to the procedure reported by Lawson, animals with ventricular rate not exceeding 100 contractions during the 30 second observation period were considered protected.

The subject of series [3] is ventricular rate and rhythm. The series can be described thus: animal or person. In kind it is in vivo. Particulars: for ED50: Mus musculus, ip, 10 min, read-out: ED50 (95% CL). Here is the method:
as §1

Series [4] can be described thus: in vivo. Particulars: ip. The text has this: LD50 data were obtained by standard procedures known to the art.
The conditions of series [5]: Casagrande, quoted; cited from earlier work.

Turning to `O=C1NC(=O)C(c2ccccc2)(c2ccccc2)N1` [DPH, 5,5-diphenyl-2,4-imidazolidinedione], the “side effects / toxicity (in words)” value in series [1] was “dizziness, nausea, emesis, nystimus, and ataxia”. Besides, the “side effects at large doses (in words)” value in series [1] (large doses) is recorded as “atrio-ventricular blockage, bradycardia, or even cardiac arrest”.

With `O=C1NC(c2ccccc2)(c2ccccn2)C(=O)N1CCCN1CCC(c2ccccc2)CC1` (stereo not shown) [Example 1, 3-[3-(4-phenyl-1-piperidyl)propyl]-5-phenyl-5-(2-pyridyl)hydantoin], the selectivity ratio in “in vivo [2]” worked out at 9. Further, the ED50 (in general, the dose at which the effect has come halfway, by size or by number of responders) in series [3] worked out at 15.3 mg/kg. Moreover, in the series “in vivo [4]”, the LD50 – broadly, the dose expected to kill half of the subjects tested – worked out at 136 mg/kg.

Consider `O=C1NC(c2ccccc2)(c2ccccn2)C(=O)N1CCCN1CCC(O)(c2ccccc2)CC1` (stereo not shown) [Example 2, 3-[3-(4-hydroxy-4-phenyl-1-piperidyl)propyl]-5-phenyl-5-(2-pyridyl)hydantoin], for which, in the series “in vivo [2]”, the selectivity ratio amounted to 3.4. Besides, the ED50 in series [3] is 19.2 mg/kg. The same compound gave an LD50 in “in vivo [4]” of 65 mg/kg.

In the case of `O=C1NC(c2ccccc2)(c2cccnc2)C(=O)N1CCCN1CCC(c2ccccc2)CC1` (stereo not shown) [Example 4, 3-[3-(4-phenyl-1-piperidyl)propyl]-5-phenyl-5-(3-pyridyl)-hydantoin], in “in vivo [2]”, the selectivity ratio amounted to 5. Further, the ED50 in series [3] was 31 mg/kg. This compound also registered an LD50 in “in vivo [4]” of 156 mg/kg.

As for `O=C1NC(c2ccccc2)(c2ccncc2)C(=O)N1CCCN1CCC(c2ccccc2)CC1` (stereo not shown) [Example 5, 3-[3-(4-phenyl-1-piperidyl)propyl]-5-phenyl-5-(4-pyridyl)hydantoin], the selectivity ratio in “in vivo [2]” came out at 2.1. Moreover, in series [3], the 50% effective dose (ED50) stood at 28 mg/kg. This compound also had an LD50 in the series “in vivo [4]” of 61 mg/kg.

As for `C=C[C@H]1C[N@@]2CC[C@H]1C[C@@H]2[C@@H](O)c1ccnc2ccc(OC)cc12` [I, quinidine], the “side effects / toxicity (in words)” value in series [1] is reported as “relatively toxic”.

`O=C1NC(=O)C(c2ccccc2)(c2ccccn2)N1` (stereo not shown) [V, 5-phenyl-5-(2-pyridyl)hydantoin]: the selectivity ratio in “in vivo [2]” was determined as 1.16. The ED50 in series [3] stood at 160 mg/kg. In “in vivo [4]”, this compound yielded an LD50 of 186 mg/kg.

Take `O=C1NC(=O)C(c2ccccc2)(c2cccnc2)N1` (stereo not shown) [VI, 5-phenyl-5-(3-pyridyl)hydantoin]: the ED50 in series [3] was greater than 310 mg/kg. The mice protected in series [3] (at 310 mg/kg, i.p.) was 2 of 5.

For the compound `O=C1NC(=O)C(c2ccccc2)(c2ccncc2)N1` (stereo not shown) [VII, 5-phenyl-5-(4-pyridyl)hydantoin], in “in vivo [2]”, the selectivity ratio is 1.17. The ED50 in series [3] turned out to be 205 mg/kg. This compound gave an LD50 in “in vivo [4]” of 240 mg/kg.

On to `CN(C)CCN1C(=O)NC(c2ccccc2)(c2cccnc2)C1=O` (stereo not drawn) [compound XXV, 3-(2-dimethylamino-ethyl)-5-phenyl-5β-pyridyl-hydantoin], for which the “therapeutic index clearly superior to that of quinidine (in words)” value in series [5] is “had not been fulfilled”.

`CC(CN(C)C)CN1C(=O)NC(c2ccccc2)(c2cccnc2)C1=O` (stereo not drawn) [compound XXX, 3-(2-methyl-3-dimethylamino-propyl)-5-phenyl-5β-pyridyl-hydantoin]: the “therapeutic index clearly superior to that of quinidine (in words)” value in series [5] was “had not been fulfilled”.

The values above are taken from patent publication US4061760A, “Method for using 3-substituted-5-phenyl-5-pyridyl hydantoins as antiarrhythmic agents” (priority 1976, dated 1977).
